According to patent US20100316626A1, “METHODS FOR TREATMENT AND DIAGNOSIS OF PSYCHIATRIC DISORDERS” (THE GOVERNMENT OF THE UNITED STATES OF AMERICA AS …, priority 2006, published 2010):

How the values were obtained:
[1] = system: basal synaptic transmission in hippocampal slices; assay: Basal synaptic transmission in acute hippocampal slices (field recordings); assay type: cell-based, mouse; details: D2-selective inhibitors perfused in hippocampal slices; FIG. 11A
Procedure: (§1) Acute mouse hippocampal slice preparation: Hippocampal slices from 4 to 5 week old C57BL/6 mice were prepared in ice-cold artificial cerebrospinal fluid (ACSF) and cut on a 1000PLUS Vibratome (VIBRATOME, St. Louis, USA) to a thickness of ˜300 μm.
Electrophysiological recordings in mouse hippocampal slices: A single slice was transferred to a submerged recording chamber continuously perfused at a flow rate of 2 mL/min (30° C.) with recording ACSF (same as cutting ACSF minus the ascorbate, myo-inositol and pyruvate). Recordings were performed in 10 μM bicuculline (Tocris, USA) to block inhibitory activity. […] The AMPAR or NMDAR mediated EPSCs were measured 5 min prior to delivering the TBS, at approximately 20 min after inducing LTP (when the response stabilized), and at 10 and 40 min after commencing NRG-1β1 perfusion. In other experiments NMDAR EPSCs were recorded in potentiated slices prior to and after NRG-1 treatment at +40 mV (plus […] CNQX) to inhibit residual AMPAR currents. Paired-pulse facilitation was analyzed in whole-cell current-clamp recordings with inter-pulse intervals set to 50, 100, 150 and 200 msec.
Peptides corresponding to the splice variants of the EGF-like domains of NRG-1β1 and NRG-1α2 were dissolved in recording ACSF solution to a final concentration 0.1 or 1 nM. […] Data were analyzed for significance using the Student's t-test. […]

[2] = system: LTP at Schaffer collateral-CA1 synapses; assay: LTP and LTP depotentiation at Schaffer collateral-CA1 synapses in acute hippocampal slices; assay type: cell-based, mouse; details: for block of the effects of NRG-1β on LTP by ErbB RTK inhibitors: inhibitor 10 μM applied 10 min prior to NRG-1, FIG. 3D
Procedure: as §1
Electrophysiological recordings in mouse hippocampal slices: A single slice was transferred to a submerged recording chamber continuously perfused at a flow rate of 2 mL/min (30° C.) with recording ACSF (same as cutting ACSF minus the ascorbate, myo-inositol and pyruvate). Recordings were performed in 10 μM bicuculline (Tocris, USA) to block inhibitory activity. […] A borosilicate two-barrel stimulation electrode (World Precision Instruments, Sarasota, Fla.) with a silver wire (A-M Systems, Carlsberg, Wash.) was filled with oxygenated ACSF recording solution and placed in the stratum radiatum to stimulate the Schaffer collateral/commissural fibers at 0.05 Hz (0.1 msec, 20-40 μA) via a stimulus isolator (A365, World Precision Instruments, Sarasota, Fla.). Data were collected with a Multiclamp 700A amplifier (Axon Instrument, Foster city, CA). The recordings were digitized at a sampling rate of 10 kHz and filtered at 3 kHz. Baseline fEPSP slopes were set to 40-50% of maximum response. Baseline recordings of at least 10 min were obtained once stable basal transmission was observed. LTP was induced using a theta burst stimulation (TBS) protocol that consisted of 5 trains delivered at 0.2 Hz. […] To measure the AMPAR or the NMDAR components of evoked EPSCs, voltage-clamp recordings from CA1 pyramidal neurons were performed at holding potentials of −70 mV to measure the AMPAR component (10 EPSCs during 1 min) or at +40 mV to measure the NMDAR component. The AMPAR or NMDAR mediated EPSCs were measured 5 min prior to delivering the TBS, at approximately 20 min after inducing LTP (when the response stabilized), and at 10 and 40 min after commencing NRG-1β1 perfusion. In other experiments NMDAR EPSCs were recorded in potentiated slices prior to and after NRG-1 treatment at +40 mV (plus […] CNQX) to inhibit residual AMPAR currents. Paired-pulse facilitation was analyzed in whole-cell current-clamp recordings with inter-pulse intervals set to 50, 100, 150 and 200 msec.
Peptides corresponding to the splice variants of the EGF-like domains of NRG-1β1 and NRG-1α2 were dissolved in recording ACSF solution to a final concentration 0.1 or 1 nM. NRG was delivered for 10 min in external recording ACSF solution 20, 30 or 50 min following TBS. The ErbB receptor inhibitors PD158780 (10 μM) and PD168393 (10 μM) were diluted in ACSF solution and applied to the slices 10 min prior to NRG-1 addition to ensure diffusion into the cell and efficient receptor inhibition. […] Data were analyzed for significance using the Student's t-test. […]

ErbB receptors [3] = details: A431, SK-BR-3 and MDA-MB-453 cells; read-out: IC50 for block of ErbB phosphorylation; cited from earlier work
PDGF receptor = details: at μM concentrations; cited from earlier work
ErbB receptors [4] = details: cited from earlier work
FGF receptor = details: at μM concentrations; cited from earlier work
[5] = system: A431, SK-BR-3 and MDA-MB-453 cells; details: cited from earlier work
[6] = system: surface seGFP-GluR1 AMPA receptors; assay: Live imaging of surface seGFP-GluR1 in transfected dissociated hippocampal neurons; assay type: cell-based, rat; details: PD158780 5 min before and during NRG-1; FIG. 6A
Procedure: Dissociated hippocampal cultures and chemLTP induction: Hippocampal neuronal cultures from E19 rat pups were prepared as reported previously. C. S. Herrmann et al., Clin Neurophysiol 116: 2719, 2005; A. Fisahn, et al., Nature 394: 186, 1998. Neurons were plated on 12 mm glass coverslips in 24 well plates at a density of 50,000 cells/well. ChemLTP was induced in cultures essential as described previously with minor modifications (Liao et al., 2001; Lu et al., 2001). Briefly, cells grown for 5 days in vitro (DIV5) were switched to medium containing 200 μM APV and maintained in Neurobasal media supplemented with B-27 (Invitrogen) until DIV18 to DIV22. […]
Live imaging in transfected hippocampal neurons of surface seGFP-tagged GluR1 AMPARs. […] Cells were perfused with […] glycine-containing medium used to induce chemLTP prior to capturing images and recorded for 4 min. […] Immediately after quenching with acidic MES buffer, cultures were switched back to 200 μM glycine in HBBSS (pH 7.4) for 2 min to recover the fluorescence. […] Images were detected with a cooled CCD camera (10 mW output, 12 bits, 1344×1024 pixels, Hamamatsu Orca ER) using 400 msec of exposure and 2×2 binning. Fluorescence was determined in 20-μm segments of neuronal processes that were at least 10 μm removed from the neuronal soma. […] Significance was evaluated by 1-way-ANOVA.

Clc1ccc(N2CCN(Cc3c[nH]c4ncccc34)CC2)cc1 [L745870]
effect on basal synaptic transmission [1]: no effect
effect on NRG-1-evoked LTP depotentiation ([2]; 50 nM, FIG. 11C): prevent NRG-1-evoked LTP depotentiation

CNc1cc2c(Nc3cccc(Br)c3)ncnc2cn1 [PD158780, 4-[(3-Bromophenyl)amino]-6-(methylamino)-pyrido[3,4-d]pyridimine]
IC50 (ErbB receptors [3]): 15 to 50 nM
cross-reactivity with PDGF receptor (PDGF receptor): no cross-reactivity
block of the effects of NRG-1β on LTP by ErbB RTK inhibitors [2]: completely blocked
effect on LTP depotentiation elicited by TPS ([2]; two-pathway approach, FIG. 4C,D): block LTP depotentiation
dissociation rate and autophosphorylation inhibition of the receptors (ErbB receptors [4]): extremely slow (several hours)
Kd (ErbB receptors [4]; reconstituted receptors in vitro, read-out: affinities (binds competitively with ATP in the pocket)): 0.1 to 1 nM
cross-reactivity with FGF receptor (FGF receptor): no cross-reactivity
concentration that blocks proliferation [5]: 0.1 to 1 µM
block of NRG-1-induced internalization of seGFP-GluR1 [6]: completely blocked

C=CC(=O)Nc1ccc2ncnc(Nc3cccc(Br)c3)c2c1 [PD168393, 4-[3(Bromophenyl)amino]-6-acrylamidoquinazoline]
block of the effects of NRG-1β on LTP by ErbB RTK inhibitors [2]: completely blocked
